# Laboratory results reported in patent publication US8541380B2, “C-aryl glucoside SGLT2 inhibitors and pharmaceutical compositions comprising same” (Green Cross Corporation, priority 2009, dated 2013).
# Biological target: human SGLT2 (Homo sapiens (Human), UniProt P31639)
# Test: hSGLT2 inhibitory activity, sodium-dependent 14C-AMG glucose transport assay in CHO cells expressing hSGLT2
# Format: cell-based
# Settings: 14C-AMG uptake, CHO cells expressing hSGLT2, 37° C. for 2 h
# Summary of the method: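 Stably transfected CHO cells preincubated 10 min at 37 °C in Na⁺-free choline buffer, then 2 h at 37 °C in NaCl uptake buffer (pH 7.4) with 1 mM unlabeled AMG plus 8 uM ¹⁴C-AMG and inhibitor or DMSO. Washed cells counted by liquid scintillation.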
# human SGLT2, sequence (P31639 whole entry): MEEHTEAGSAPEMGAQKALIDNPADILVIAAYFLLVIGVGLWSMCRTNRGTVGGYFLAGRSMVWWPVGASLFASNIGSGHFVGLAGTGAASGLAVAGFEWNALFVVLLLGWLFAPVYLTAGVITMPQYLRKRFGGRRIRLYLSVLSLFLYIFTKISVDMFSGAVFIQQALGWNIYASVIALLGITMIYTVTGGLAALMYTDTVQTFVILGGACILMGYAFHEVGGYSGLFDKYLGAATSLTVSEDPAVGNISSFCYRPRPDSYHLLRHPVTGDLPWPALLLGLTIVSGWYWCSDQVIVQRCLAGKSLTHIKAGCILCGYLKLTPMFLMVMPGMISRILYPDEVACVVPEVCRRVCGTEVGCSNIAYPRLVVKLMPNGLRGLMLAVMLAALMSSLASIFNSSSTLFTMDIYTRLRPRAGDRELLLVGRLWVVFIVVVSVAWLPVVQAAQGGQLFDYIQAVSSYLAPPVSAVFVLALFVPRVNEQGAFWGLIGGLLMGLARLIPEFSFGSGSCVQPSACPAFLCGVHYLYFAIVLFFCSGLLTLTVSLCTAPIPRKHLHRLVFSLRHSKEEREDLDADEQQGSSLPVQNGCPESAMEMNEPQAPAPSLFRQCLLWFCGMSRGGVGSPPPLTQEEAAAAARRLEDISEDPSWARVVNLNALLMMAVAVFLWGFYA
row,IC50,SMILES
1,491 nM,"OC[C@H]1O[C@@H](c2ccc(Cl)c(Cc3nnc4ccccc4n3)c2)[C@H](O)[C@@H](O)[C@@H]1O [Example 88, (2S,3R,4R,5S,6R)-2-(3-(Benzo[e][1,2,4]triazin-3-ylmethyl)-4-chlorophenyl)-6-(hydroxymethyl)tetrahydro-2H-pyran-3,4,5-triol]"
2,261 nM,"OC[C@H]1O[C@@H](c2ccc(Cl)c(Cc3nccnn3)c2)[C@H](O)[C@@H](O)[C@@H]1O [Example 89, (2S,3R,4R,5S,6R)-2-(3-((1,2,4-triazin-3-yl)methyl)-4-chlorophenyl)-6-(hydroxymethyl)tetrahydro-2H-pyran-3,4,5-triol]"
3,402 nM,"OC[C@H]1O[C@@H](c2ccc(Cl)c(Cc3nncc(-c4ccccc4)n3)c2)[C@H](O)[C@@H](O)[C@@H]1O [Example 90, (2S,3R,4R,5S,6R)-2-(4-Chloro-3-((5-phenyl-1,2,4-triazin-3-yl)methyl)phenyl)-6-(hydroxymethyl)tetrahydro-2H-pyran-3,4,5-triol]"
4,24.9 nM,"COc1cnc(Cc2cc([C@@H]3O[C@H](CO)[C@@H](O)[C@H](O)[C@H]3O)ccc2Cl)nn1 [Example 91, (2S,3R,4R,5S,6R)-2-(4-Chloro-3-((6-methoxy-1,2,4-triazin-3-yl)methyl)phenyl)-6-(hydroxymethyl)tetrahydro-2H-pyran-3,4,5-triol]"
5,88.9 nM,"OC[C@H]1O[C@@H](c2cc(Cc3nnc(-c4ccco4)s3)cc3ccccc23)[C@H](O)[C@@H](O)[C@@H]1O [Example 92, (2S,3R,4R,5S,6R)-2-(3-((5-(Furan-2-yl)-1,3,4-thiadiazol-2-yl)methyl)naphthalene-1-yl)-6-(hydroxymethyl)-tetrahydro-2H-pyran-3,4,5-triol]"
6,10.7 nM,"COc1c(Cc2nnc(-c3ccco3)s2)cc([C@@H]2O[C@H](CO)[C@@H](O)[C@H](O)[C@H]2O)c2ccccc12 [Example 93, (2S,3R,4R,5S,6R)-2-(3-((5-(Furan-2-yl)-1,3,4-thiadiazol-2-yl)methyl)-4-methoxynaphthalen-1-yl)-6-(hydroxymethyl)-tetrahydro-2H-pyran-3,4,5-triol]"
7,24.8 nM,"OC[C@H]1O[C@@H](c2cc(Cc3nnc(-c4ccco4)s3)c(O)c3ccccc23)[C@H](O)[C@@H](O)[C@@H]1O [Example 94, (2S,3R,4R,5S,6R)-2-(3-((5-(Furan-2-yl)-1,3,4-thiadiazol-2-yl)methyl)-4-hydroxynaphthalen-1-yl)-6-(hydroxymethyl)-tetrahydro-2H-pyran-3,4,5-triol]"
8,323 nM,"OC[C@H]1O[C@@H](c2cc(Cc3nnc(-c4ccco4)s3)c3ccccc3c2)[C@H](O)[C@@H](O)[C@@H]1O [Example 95, (2S,3R,4R,5S,6R)-2-(4-((5-(Furan-2-yl)-1,3,4-thiadiazol-2-yl)methyl)naphthalen-2-yl)-6-(hydroxymethyl)-tetrahydro-2H-pyran-3,4,5-triol]"
9,17.6 nM,"OC[C@H]1O[C@@H](c2cc(Cc3nnc(-c4ccco4)s3)c(Cl)cc2Cl)[C@H](O)[C@@H](O)[C@@H]1O [Example 96, (2S,3R,4R,5S,6R)-2-(2,4-Dichloro-5-((5-(furan-2-yl)-1,3,4-thiadiazol-2-yl)methyl)phenyl)-6-(hydroxymethyl)-tetrahydro-2H-pyran-3,4,5-triol]"
10,5.55 nM,"COc1cc(Cl)c(Cc2nnc(-c3ccco3)s2)cc1[C@@H]1O[C@H](CO)[C@@H](O)[C@H](O)[C@H]1O [Example 97, (2S,3R,4R,5S,6R)-2-(4-Chloro-5-((5-(furan-2-yl)-1,3,4-thiadiazol-2-yl)methyl)-2-methoxyphenyl)-6-(hydroxymethyl)-tetrahydro-2H-pyran-3,4,5-triol]"
